Test [1] deals with rabbit primary urothelial cells. The following applies: ET-1 at 20 μM.
Protocol: Briefly, explanted epithelial cells propagated from fresh biopsy specimens are grown in DMEM-F12 with 10% heat-inactivated fetal bovine serum, 1% antibiotic/antimycotic, 1% L-glutamine, 1.0 unit/ml insulin (all from Sigma), and 5 μg/ml human epidermal growth factor at 37° C. in a humidified atmosphere of 5% CO2 and 95% air. […] Cell proliferation is assessed also by ^3H-thymidine incorporation and by cell counting using a haemocytometer. ET-1 samples are diluted at varying concentrations in serum-free MEM (containing only glutamine and antibiotics) and applied to cells. Control cultures receive only the vehicle. Cells are fed with serum-free medium for the proliferation assay.
Cultures are exposed to 1 μCi per well ^3H-thymidine (1 Ci=37 GiBg) for 4 hrs and trypsinized, sedimented by brief centrifugation (3,000 rpm for 10 min) and the cell pellets are washed with a buffer containing cold thymidine and the radioactivity determined using a scintillation counter. The ^3H-thymidine incorporation is expressed as a mean decrease in cpm of >2 SD from the mean of control cells for each plate. […] After developing the autoradiographs in D-19 (15° C.) and fixation, culture plates are stained with H &E. Cultures are examined under a light microscope and the number of cells showing silver grains in the nuclei from 10 selected fields on the culture plate are counted. […]
Test [2] relates to cultured urothelial cells. Description: Click-iT EdU assay of newly synthesized DNA. Format: cell-based. The following applies: ET-1 10 nM (25 ng/ml) vs control. The source says: Click-iT EdU assay (Invitrogen) was used to detect and quantify newly synthesized DNA. […] In Click-iT assay, EdU can be detected by green fluorescent dye and nuclei can be detected by blue fluorescent dye. Using fluorescent microplate reader (Synergy2, BioTek) both green and blue fluorescent signal were detected and quantified as shown in the bar graph of FIG. 3).

The test system of test [3] is human primary urothelial cells. Nature of the test: growth of cultured human primary urothelial cells (proliferation assay). Format: cell-based. The following applies: 20 μM ET-1. The source says:
Control cultures receive only the vehicle.

Entries after “also recorded” stand apart in the source; their conditions may differ.

As to `CC[C@H](C)[C@H](NC(=O)[C@H](CC(=O)O)NC(=O)[C@H](CC(C)C)NC(=O)[C@H](Cc1c[nH]cn1)NC(=O)[C@@H]1CSSC[C@H](N)C(=O)N[C@@H](CO)C(=O)N[C@H]2CSSC[C@H](NC(=O)[C@H](CCC(=O)O)NC(=O)[C@H](CCCCN)NC(=O)[C@H](CC(=O)O)NC(=O)[C@H](CCSC)NC(=O)[C@H](CC(C)C)NC(=O)[C@H](CO)NC(=O)[C@H](CO)NC2=O)C(=O)N[C@@H](C(C)C)C(=O)N[C@@H](Cc2ccc(O)cc2)C(=O)N[C@@H](Cc2ccccc2)C(=O)N1)C(=O)N[C@H](C(=O)N[C@@H](Cc1c[nH]c2ccccc12)C(=O)O)[C@@H](C)CC` [ET-1, Endothelin-1], the “inhibition of growth of rabbit primary urothelial cells” value in test [1] is on record as 30-40%. Moreover, in test [2], the “EdU staining (newly synthesized DNA) in cultured urothelial cells” value is listed as “significant decrease”. Further, the “effect on cell growth of cultured human urothelial cells” value in test [3] was “inhibited; also recorded: inhibition”.

The values above are taken from US8563261B2, “Method of diagnosing and treating interstitial cystitis” (The Trustees of the University of Pennsylvania, priority 2009, dated 2013).
